The record followed here is PMC5288202, “Simultaneous inhibition of Vps34 kinase would enhance PI3Kδ inhibitor cytotoxicity in the B-cell malignancies” (Oncotarget, 2016).

Some results are limits rather than exact numbers.

In one assay the test system is MV4-11. The assay can be described thus: Anti-proliferative effect. The class given is cell-based. To be noted: AML (FLT3-ITD).
The next assay concerns the target T1, PI3Kγ (Homo sapiens, UniProt P48736).
T1 construct: purchased Invitrogen
The assay can be described thus: ADP-Glo biochemical assay. To be noted: purified protein, 50 μM ATP, read-out: IC50 against PI3Kγ (PIK3CG).

For assay [1], the system named is MEC-2. The assay can be described thus: Colony formation (colonogenic assay). The class given is cell-based. The conditions noted are these: MEC2; CLL.
Another assay concerns the target T2, PI3Kβ (Homo sapiens, UniProt P42338).
T2 construct: purchased Sigma
The assay can be described thus: ADP-Glo biochemical assay. To be noted: purified protein, 10 μM ATP, read-out: IC50 against PI3Kβ (PIK3CB).

In a further assay the test system is HEL. The assay can be described thus: Anti-proliferative effect. To be noted: Homo sapiens, read-out: GI50 HEL. The class given is cell-based.
The next assay has as its system U937. The assay can be described thus: Anti-proliferative effect. The class given is cell-based. The conditions noted are these: Homo sapiens, U-937, read-out: GI50 U937.
Assay [2] concerns OCI-AML-2. The assay can be described thus: Induction of apoptosis (PARP cleavage). The class given is cell-based. To be noted: OCI-AML-2, evident at 3 μM to 10 μM.
Another assay deals with Ramos. The assay can be described thus: Anti-proliferative effect. It is filed as cell-based. To be noted: Homo sapiens, read-out: GI50 Ramos.
The next assay concerns primary CLL cells. The assay can be described thus: Growth of patient primary cells. The class given is cell-based. The conditions noted are these: CLL cell, 72 hours, read-out: cell proliferation inhibited. An excerpt:
Peripheral blood mononuclear cells (PBMCs) from individuals with CLL were isolated by density centrifugation through Ficoll and frozen for each subject. Those subjects with low white counts whose CLL cell purity was expected to be < 85% underwent B cell isolation using RosetteSep. The protocol was approved by the Dana-Farber Harvard Cancer Center Institutional Review Board and all subjects signed written informed consent prior to participation.

In assay [3] the test system is OCI-AML-2. The assay can be described thus: Colony formation (colonogenic assay). The conditions noted are these: Homo sapiens, OCI-AML2. It is filed as cell-based.
In assay [4] the test system is OCI-AML-2. The assay can be described thus: Anti-proliferative effect. The conditions noted are these: Homo sapiens, OCI-AML2, read-out: GI50 OCI-AML-2. The class given is cell-based.
Assay [5] deals with PI3Kδ-mediated signaling in OCI-AML-2, OCI-AML-3, MV4-11 and MEC-2 cell lines. The assay can be described thus: PI3Kδ-mediated signaling pathway (immunoblotting). It is filed as cell-based. The conditions noted are these: all four cell lines. From the text: The following antibodies were purchased from Cell Signaling Technology: Akt(#4691), Phospho-Akt(Thr308)(#4056), Phospho-Akt(Ser473)(#4060), GAPDH, GSK-3β(#9315), Phospho-GSK-3β(#9323), FoxO1(#2880), Phospho-FoxO1 (Thr24)/FoxO3a(Thr32)/FoxO4(Thr28)(#2599), PRAS40(#2691), Phospho-PRAS40 (Thr246)(#2997), 4E-BP1(#9644), p70 S6K(#2708), Phospho-p70 S6K (Thr389)(#9234). SQSTM1/p62 (D5E2)(#8025), LC3B(#12513). PARP(#9532), Caspase-3(#9665), Phospho-p44/42 MAPK (Erk1/2) (Thr202/Tyr204)(#4377), p44/42 MAPK (Erk1/2) (#4695), Phospho-NF-ΚB P65 (Ser 536)(#3033), NF-ΚB P65(#4764). Lysophosphatidic Acid (#sc-201053, Santa Cruz), Recombinant Human PDGF-BB (#220-BB, R&D), Recombinant Human C5a (Peprotech, #300-70), goat anti-IgM (#5C07615, Meridian). LC3B antibody (#3868, CST). Tubulin antibody (#8035, Santa Cruz). EEA1 antibody (#610456, BD Bioscience) and LAMP1 antibody (#24170, Abcam). Secondary antibodies, Alexa488-anti-mouse, Alexa594-anti-rabbit and Prolong gold mounting medium with DAPI were purchased from Invitrogen.

Another assay addresses T3, mTOR kinase (Homo sapiens, UniProt P42345).
T3 construct: purchased DiscoveRx (KinomeScan platform)
The assay can be described thus: DiscoveRx's KinomeScan binding. To be noted: read-out: % control number, mTOR.

For assay [6], the system named is MEC-2. The assay can be described thus: Anti-proliferative effect. It is filed as cell-based. To be noted: MEC2, read-out: GI50 MEC-2.
The subject of assay [7] is LAMP1 localization in HeLa cells. The assay can be described thus: Immunofluorescence of LAMP1 localization. The class given is cell-based. As to the method:
HeLa cells were treated with different concentrations of inhibitors for 16 hours. For all immunofluorescence experiments, cells were fixed in -20 °C methanol for 5 minutes or 3.7% (v/v) formaldehyde in phosphate-buffered saline (PBS) for 20 minutes. For LC3B staining, cells were fixed in -20 °C methanol. For EEA1 and LAMP1 staining, cells were fixed in PBS+ formaldehyde. Cells were then permeabilized with TBSTx (0.1% Triton X-100), blocked in AbDil (TBSTx + 2% BSA + 0.1% NaN3), and probed with primary and secondary antibodies diluted in AbDil. Cells were rinsed thoroughly with TBSTx and mounted by anti-fade prolong Gold with DAPI. Images were taken using a Leica DMI4000B fluorescent microscope. All experiments were repeated at least three times). […] Cells were lysed in lysis buffer. P62, LC3B, and GAPDH antibodies were used for immunoblotting.

Another assay has as its system OCI-AML-3. The assay can be described thus: Induction of apoptosis (PARP cleavage). To be noted: OCI-AML-3, concentrations up to 10 μM. It is filed as cell-based.
The next assay deals with T4, PIK3C2B (Homo sapiens, UniProt O00750).
T4 construct: purchased Invitrogen
The assay can be described thus: ADP-Glo biochemical assay. The conditions noted are these: 50 μM ATP, read-out: IC50 against PIK3C2B.

The target in another assay is PI3Kδ (Homo sapiens, UniProt O00329). The assay can be described thus: Kinase kinetic assay with varied ATP. It is filed as biochemical. The arrangement: purchased Invitrogen. To be noted: varied ATP concentrations. As to the method: Kinetic analyses of PI3Kδ and Vps34 were performed using a luminometric kinase assay varying the concentration of ATP using the ADP-Glo reagents (Promega). […] After 60 min incubation at RT, varied concentrations of ATP and 0.1 mM substrate (PIP2:PS for PI3Kδ, PI:PS for Vps34) were added and incubated for 60 min at 37° C. The overall rate of reaction was determined as the slope of the decreasing phase of the reaction. Each data point was collected in duplicate and kinetic parameters were obtained using Prism 5.0 (GraphPad Software, San Diego, CA).
Sequence of PI3Kδ (O00329 whole entry): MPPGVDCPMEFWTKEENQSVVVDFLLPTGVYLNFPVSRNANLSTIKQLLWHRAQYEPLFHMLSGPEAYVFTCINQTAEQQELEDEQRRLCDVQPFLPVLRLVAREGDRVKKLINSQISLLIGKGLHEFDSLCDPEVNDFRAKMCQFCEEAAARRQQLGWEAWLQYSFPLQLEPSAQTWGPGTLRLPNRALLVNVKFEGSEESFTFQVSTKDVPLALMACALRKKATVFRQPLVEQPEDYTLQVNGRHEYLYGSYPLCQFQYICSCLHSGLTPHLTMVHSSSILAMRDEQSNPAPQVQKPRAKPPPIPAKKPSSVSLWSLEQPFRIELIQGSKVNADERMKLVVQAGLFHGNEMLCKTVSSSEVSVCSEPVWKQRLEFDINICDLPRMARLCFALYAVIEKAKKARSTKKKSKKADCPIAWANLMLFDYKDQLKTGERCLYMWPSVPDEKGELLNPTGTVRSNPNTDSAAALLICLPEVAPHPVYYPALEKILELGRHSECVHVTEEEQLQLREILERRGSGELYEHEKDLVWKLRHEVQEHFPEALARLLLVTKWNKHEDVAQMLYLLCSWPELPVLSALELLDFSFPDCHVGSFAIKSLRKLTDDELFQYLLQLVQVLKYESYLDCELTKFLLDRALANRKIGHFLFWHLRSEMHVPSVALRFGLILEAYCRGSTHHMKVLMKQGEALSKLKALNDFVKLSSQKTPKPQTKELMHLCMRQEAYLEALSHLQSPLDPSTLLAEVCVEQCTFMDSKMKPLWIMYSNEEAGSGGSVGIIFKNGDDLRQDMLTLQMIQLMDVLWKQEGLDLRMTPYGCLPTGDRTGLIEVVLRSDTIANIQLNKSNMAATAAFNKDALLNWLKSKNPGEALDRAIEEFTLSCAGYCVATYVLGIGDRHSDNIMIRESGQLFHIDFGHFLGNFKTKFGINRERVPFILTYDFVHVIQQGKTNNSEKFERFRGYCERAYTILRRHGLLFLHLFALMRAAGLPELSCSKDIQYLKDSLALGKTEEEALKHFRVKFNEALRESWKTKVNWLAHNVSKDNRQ
Sequence of PI3Kδ (P27986 whole entry partner): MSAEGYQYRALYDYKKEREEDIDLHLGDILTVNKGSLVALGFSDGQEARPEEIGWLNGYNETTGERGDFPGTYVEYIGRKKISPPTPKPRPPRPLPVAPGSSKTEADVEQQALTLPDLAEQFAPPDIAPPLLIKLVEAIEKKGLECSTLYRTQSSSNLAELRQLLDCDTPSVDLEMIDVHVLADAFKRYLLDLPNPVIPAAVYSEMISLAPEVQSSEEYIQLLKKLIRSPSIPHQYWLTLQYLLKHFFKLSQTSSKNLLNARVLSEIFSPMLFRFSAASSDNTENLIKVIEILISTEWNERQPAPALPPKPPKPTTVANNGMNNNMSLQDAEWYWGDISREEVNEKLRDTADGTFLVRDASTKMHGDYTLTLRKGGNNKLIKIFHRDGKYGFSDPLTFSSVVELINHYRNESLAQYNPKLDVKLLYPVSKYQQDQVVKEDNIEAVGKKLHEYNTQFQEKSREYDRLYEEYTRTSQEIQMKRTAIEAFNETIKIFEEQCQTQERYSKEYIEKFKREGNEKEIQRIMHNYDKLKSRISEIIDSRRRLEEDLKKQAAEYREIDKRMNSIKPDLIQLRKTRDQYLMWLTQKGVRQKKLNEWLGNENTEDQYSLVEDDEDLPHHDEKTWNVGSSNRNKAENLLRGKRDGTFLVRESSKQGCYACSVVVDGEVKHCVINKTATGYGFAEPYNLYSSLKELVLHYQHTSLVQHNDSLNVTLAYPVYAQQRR

A further assay has as its target T5, PI3Kα (Mus musculus, UniProt P42337).
T5 construct: endogenous in cells; host or cells: NIH-3T3 (ATCC)
The assay can be described thus: PI3K isoforms cellular selectivity assay (AKT phosphorylation, NIH-3T3, PDGF-BB). It is filed as cell-based. The conditions noted are these: NIH-3T3 cells, PDGF-BB stimulation. As to the method: Cells were lysed and AKT phosphorylation was determined by Western Blotting. Intensity of the bands was determined using ImageJ 1.42q (NIH, USA) and normalized to total AKT (loading control).

T2 sequence (P42338 whole entry): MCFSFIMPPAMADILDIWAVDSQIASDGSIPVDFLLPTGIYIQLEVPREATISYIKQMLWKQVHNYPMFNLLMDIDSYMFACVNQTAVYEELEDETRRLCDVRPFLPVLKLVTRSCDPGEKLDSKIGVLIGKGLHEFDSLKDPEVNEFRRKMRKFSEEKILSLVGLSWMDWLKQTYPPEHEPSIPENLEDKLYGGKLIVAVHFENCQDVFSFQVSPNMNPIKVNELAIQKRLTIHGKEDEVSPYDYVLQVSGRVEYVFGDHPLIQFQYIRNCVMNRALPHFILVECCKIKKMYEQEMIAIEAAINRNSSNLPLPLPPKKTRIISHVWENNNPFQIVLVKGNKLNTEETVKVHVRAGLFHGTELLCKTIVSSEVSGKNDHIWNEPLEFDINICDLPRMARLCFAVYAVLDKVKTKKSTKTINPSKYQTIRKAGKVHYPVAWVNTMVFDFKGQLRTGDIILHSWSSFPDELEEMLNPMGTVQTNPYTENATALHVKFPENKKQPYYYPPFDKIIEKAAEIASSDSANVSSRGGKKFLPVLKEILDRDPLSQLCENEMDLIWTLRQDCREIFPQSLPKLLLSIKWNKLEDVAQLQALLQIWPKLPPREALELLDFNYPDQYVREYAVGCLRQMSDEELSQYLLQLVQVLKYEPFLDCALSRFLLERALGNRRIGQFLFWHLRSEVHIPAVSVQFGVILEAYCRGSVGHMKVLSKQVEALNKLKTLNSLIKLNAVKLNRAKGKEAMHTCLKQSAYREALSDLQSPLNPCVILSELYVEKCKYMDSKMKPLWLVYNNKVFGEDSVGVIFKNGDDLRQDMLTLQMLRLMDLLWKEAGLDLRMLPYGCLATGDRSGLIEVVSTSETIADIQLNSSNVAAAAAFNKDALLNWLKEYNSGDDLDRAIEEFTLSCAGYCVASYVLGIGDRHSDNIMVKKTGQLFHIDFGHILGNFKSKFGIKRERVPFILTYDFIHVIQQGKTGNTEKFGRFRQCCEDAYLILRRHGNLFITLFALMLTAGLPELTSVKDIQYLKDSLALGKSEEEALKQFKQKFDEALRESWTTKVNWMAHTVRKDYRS
T2 sequence (P27986 whole entry partner): as the sequence (P27986 whole entry partner) above
T5 sequence (P42337 whole entry): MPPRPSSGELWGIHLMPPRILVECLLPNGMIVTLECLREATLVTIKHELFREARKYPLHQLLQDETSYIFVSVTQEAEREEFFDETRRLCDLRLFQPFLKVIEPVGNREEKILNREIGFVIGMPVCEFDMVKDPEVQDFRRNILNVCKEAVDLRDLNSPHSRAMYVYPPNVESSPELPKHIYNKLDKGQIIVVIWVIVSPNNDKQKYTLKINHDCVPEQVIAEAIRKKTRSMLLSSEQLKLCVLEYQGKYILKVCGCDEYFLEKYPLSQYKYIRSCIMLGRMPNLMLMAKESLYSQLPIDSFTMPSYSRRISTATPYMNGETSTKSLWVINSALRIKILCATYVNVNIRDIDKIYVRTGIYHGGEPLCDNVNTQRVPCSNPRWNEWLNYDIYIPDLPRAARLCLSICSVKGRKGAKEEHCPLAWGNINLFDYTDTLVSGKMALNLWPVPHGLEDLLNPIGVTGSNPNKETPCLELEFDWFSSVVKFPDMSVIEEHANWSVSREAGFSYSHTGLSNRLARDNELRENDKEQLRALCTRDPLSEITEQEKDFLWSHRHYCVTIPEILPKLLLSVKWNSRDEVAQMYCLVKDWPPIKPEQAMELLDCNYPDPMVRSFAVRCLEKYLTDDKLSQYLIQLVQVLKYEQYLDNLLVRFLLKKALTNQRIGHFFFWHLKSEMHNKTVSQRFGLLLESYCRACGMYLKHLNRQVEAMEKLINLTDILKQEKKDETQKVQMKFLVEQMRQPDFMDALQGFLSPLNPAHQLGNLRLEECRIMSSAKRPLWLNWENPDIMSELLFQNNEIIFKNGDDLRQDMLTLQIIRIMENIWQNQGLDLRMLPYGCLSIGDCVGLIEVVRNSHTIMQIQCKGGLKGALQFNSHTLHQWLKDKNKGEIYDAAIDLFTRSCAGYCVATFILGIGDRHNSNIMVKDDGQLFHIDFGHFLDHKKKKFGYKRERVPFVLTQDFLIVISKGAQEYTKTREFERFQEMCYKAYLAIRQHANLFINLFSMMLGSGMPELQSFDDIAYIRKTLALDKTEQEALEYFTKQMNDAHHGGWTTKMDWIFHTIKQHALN
T5 sequence (P26450 whole entry partner): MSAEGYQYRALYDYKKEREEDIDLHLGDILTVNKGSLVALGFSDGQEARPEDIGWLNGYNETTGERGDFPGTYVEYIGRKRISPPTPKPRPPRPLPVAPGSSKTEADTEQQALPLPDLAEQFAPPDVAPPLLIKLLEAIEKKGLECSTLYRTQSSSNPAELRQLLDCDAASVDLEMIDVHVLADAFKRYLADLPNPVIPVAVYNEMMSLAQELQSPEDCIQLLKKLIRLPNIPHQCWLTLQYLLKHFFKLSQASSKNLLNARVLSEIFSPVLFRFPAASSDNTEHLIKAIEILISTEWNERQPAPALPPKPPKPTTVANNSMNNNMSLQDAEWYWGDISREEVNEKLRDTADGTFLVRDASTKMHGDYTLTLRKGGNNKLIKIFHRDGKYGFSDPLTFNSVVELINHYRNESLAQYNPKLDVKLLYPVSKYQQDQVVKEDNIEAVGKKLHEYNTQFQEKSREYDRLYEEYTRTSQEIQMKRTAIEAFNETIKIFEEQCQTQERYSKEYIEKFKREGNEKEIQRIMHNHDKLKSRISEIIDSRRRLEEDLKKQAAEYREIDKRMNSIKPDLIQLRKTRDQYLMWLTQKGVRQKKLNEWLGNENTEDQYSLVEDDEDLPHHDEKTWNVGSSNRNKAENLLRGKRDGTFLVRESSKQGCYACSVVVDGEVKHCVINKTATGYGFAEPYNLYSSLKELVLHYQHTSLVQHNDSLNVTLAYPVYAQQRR

On to `Cc1nc(NC(=O)CN)sc1-c1cnc(Cl)c(NS(=O)(=O)c2ccc(C(C)(C)C)cc2)c1` [PI3KD/V-IN-01, 2-amino-N-(5-(5-(4-tert-butylphenylsulfonamido)-6-chloropyridin-3-yl)-4-methylthiazol-2-yl)acetamide], for which the GI50 in the assay with MV4-11 was 780 nM; with MV4-11 (Homo sapiens, MV4-11), less than 1000 nM; in the assay on HEL, more than 10000 nM; in the assay with U937, 2200 nM; in the assay with Ramos it was 5400 nM; with OCI-AML-2 [4], 1000 nM. Further, the GI50 in the assay with MEC-2 [6] stood at 2400 nM. The IC50 at PI3Kγ was 119 nM; on PI3Kβ it was 111 nM; on PIK3C2B, more than 10000 nM. For the same compound, the EC50 in the assay with MEC-2 [1] was found to be 1580 nM; with OCI-AML-2 [3], 145 nM; on PI3Kα, 2970 nM. Moreover, the induction of apoptosis entry in the assay with OCI-AML-2 [2] is “only a modest induction of apoptosis”; in the assay with OCI-AML-3, “no apoptosis was observed”. The inhibition at 1 µM with primary CLL cells is approximately 50%. Moreover, the “Activity of GSK3β and NFκB” value in assay [5] is recorded as “not affected”. Moreover, the “Phosphorylation of 4EBP1” value in [5] was “not inhibited”. Besides, the “effect on pAKT(T308, S473), pFOXO1, pPRAS40 and pS6K” value in assay [5] was “inhibition of pAKT(T308, S473) and downstream pFOXO1, pPRAS40 and pS6K”. Besides, the remaining binding at 1 µM on mTOR kinase was found to be 0%. Further, in assay [7], the “Effect on lysosome marker LAMP1 localization” value is “affected”. Besides, the “Mode of inhibition against PI3Kδ” value at PI3Kδ is “ATP competitive inhibitor”.
